From the Kinase Knowledgebase extract (Sharma et al. 2016)

Legend:
[1] = biological target: PIK3CG (human) (UniProt P48736); assay: Assessment of PI3KCG Kinase Activity
[2] = biological target: PIK3CD (Human) (UniProt O00329); assay: Assessment of PI3KCD Kinase Activity
Chain of PIK3CD (Human) (O00329 whole entry, looked up): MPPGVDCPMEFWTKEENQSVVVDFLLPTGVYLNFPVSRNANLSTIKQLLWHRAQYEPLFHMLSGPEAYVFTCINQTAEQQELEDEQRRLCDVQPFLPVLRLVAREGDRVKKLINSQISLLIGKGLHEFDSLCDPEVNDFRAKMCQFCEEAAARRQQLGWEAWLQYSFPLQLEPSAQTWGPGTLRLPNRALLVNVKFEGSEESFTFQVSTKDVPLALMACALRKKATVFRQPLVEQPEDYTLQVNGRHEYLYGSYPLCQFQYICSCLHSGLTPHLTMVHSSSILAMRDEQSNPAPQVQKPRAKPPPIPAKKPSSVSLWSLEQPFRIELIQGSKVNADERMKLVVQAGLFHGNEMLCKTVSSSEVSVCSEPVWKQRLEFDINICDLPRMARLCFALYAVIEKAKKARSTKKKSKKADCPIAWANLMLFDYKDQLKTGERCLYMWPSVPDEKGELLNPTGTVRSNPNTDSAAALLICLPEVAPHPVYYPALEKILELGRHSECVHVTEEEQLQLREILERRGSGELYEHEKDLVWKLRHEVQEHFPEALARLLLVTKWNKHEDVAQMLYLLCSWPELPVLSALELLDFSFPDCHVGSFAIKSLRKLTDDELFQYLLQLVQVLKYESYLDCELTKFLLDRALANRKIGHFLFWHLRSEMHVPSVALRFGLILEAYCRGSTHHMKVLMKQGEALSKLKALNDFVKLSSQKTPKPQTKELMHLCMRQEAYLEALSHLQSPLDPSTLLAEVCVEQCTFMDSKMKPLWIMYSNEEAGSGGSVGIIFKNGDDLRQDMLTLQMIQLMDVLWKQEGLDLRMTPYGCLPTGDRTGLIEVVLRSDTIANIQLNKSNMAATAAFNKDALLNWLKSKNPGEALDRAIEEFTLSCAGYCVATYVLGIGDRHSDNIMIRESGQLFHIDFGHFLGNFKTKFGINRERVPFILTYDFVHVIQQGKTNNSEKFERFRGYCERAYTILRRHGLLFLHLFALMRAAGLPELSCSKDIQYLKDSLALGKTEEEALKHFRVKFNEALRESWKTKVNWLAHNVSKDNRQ

Chain of PIK3CG (human) (P48736 whole entry, looked up): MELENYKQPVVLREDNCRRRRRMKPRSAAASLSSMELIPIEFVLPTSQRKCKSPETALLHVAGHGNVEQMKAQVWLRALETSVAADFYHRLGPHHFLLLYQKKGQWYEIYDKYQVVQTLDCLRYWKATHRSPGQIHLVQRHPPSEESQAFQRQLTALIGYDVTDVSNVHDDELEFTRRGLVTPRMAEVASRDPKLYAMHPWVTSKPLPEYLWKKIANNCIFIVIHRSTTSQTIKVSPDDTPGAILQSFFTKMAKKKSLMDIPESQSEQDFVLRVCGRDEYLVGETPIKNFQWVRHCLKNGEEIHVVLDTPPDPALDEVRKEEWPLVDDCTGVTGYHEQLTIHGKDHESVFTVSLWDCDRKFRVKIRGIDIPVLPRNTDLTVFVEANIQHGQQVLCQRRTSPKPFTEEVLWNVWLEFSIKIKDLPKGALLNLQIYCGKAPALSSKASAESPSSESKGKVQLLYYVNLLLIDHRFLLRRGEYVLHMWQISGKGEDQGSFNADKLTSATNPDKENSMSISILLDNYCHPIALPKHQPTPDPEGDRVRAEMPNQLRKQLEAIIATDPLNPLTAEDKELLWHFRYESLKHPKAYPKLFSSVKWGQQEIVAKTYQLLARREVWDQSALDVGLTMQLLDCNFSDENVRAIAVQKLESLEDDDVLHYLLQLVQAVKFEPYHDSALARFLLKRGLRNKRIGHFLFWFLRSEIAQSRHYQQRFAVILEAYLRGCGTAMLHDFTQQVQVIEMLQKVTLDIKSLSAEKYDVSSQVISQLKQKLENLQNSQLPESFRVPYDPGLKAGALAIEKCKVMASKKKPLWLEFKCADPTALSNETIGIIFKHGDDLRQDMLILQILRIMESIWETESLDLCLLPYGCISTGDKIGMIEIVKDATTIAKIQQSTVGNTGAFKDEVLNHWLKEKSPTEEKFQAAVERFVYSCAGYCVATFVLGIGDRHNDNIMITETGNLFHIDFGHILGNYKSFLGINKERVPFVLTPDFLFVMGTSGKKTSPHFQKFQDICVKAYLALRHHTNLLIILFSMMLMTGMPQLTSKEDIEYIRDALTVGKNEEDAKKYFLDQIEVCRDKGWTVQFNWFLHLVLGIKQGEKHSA

Structure (SMILES)	IC50 [1] [nM]	IC50 [2] [nM]
Cc1cccc2cc(Cn3nc(-c4cccc(O)c4)c4c(N)ncnc43)n(-c3ccccc3C(C)C)c(=O)c12	< 100	< 100
Cc1cccc2cc(Cn3nc(I)c4c(N)ncnc43)n(-c3ccccc3O)c(=O)c12	< 100	< 100
Cc1ccccc1-n1c(Cn2nc(-c3ccc(O)c(F)c3)c3c(N)ncnc32)cc2cccc(C)c2c1=O	< 100	< 100
Cc1cccc2cc(Cn3nc(-c4cc(O)cc(F)c4)c4c(N)ncnc43)n(-c3ccccc3Cl)c(=O)c12	< 100	< 100
Cc1cccc2cc(Cn3nc(-c4cccc(O)c4)c4c(N)ncnc43)n(C(C)C)c(=O)c12	< 100	< 100
Cc1ccccc1-n1c(Cn2nc(-c3ccc4nc(N)ccc4c3)c3c(N)ncnc32)cc2cccc(C)c2c1=O	< 100	< 100
CCc1ccccc1-n1c(Cn2nc(-c3cccc(O)c3)c3c(N)ncnc32)cc2cccc(C)c2c1=O	< 100	< 100
Cc1ccccc1-n1c(Cn2nc(-c3ccc(Cl)c(O)c3)c3c(N)ncnc32)cc2cccc(C)c2c1=O	< 100	< 100
Cc1cccc2cc(Cn3nc(-c4cn[nH]c4)c4c(N)ncnc43)n(-c3ccccc3C(C)C)c(=O)c12	< 100	< 100
Cc1cccc2cc(Cn3nc(-c4cc(O)cc(F)c4)c4c(N)ncnc43)n(-c3ccccc3F)c(=O)c12	< 100	< 100
Cc1cccc2cc(Cn3nc(-c4cccc(O)c4)c4c(N)ncnc43)n(-c3ccccc3)c(=O)c12	< 100	< 100
Cc1ccccc1-n1c(Cn2nc(-c3ccc4cc[nH]c4c3)c3c(N)ncnc32)cc2cccc(C)c2c1=O	< 100	< 100
Cc1cccc2cc(Cn3nc(-c4cc(O)cc(F)c4)c4c(N)ncnc43)n(-c3ccccc3C(C)C)c(=O)c12	< 100	< 100
Cc1ccccc1-n1c(Cn2nc(-c3cccc(O)c3)c3c(N)ncnc32)cc2cccc(C)c2c1=O	< 100	< 100
Cc1ccccc1-n1c(Cn2nc(-c3cn[nH]c3)c3c(N)ncnc32)cc2cccc(C)c2c1=O	< 100	< 100
Cc1cccc2cc(Cn3nc(-c4cccc(O)c4)c4c(N)ncnc43)n(C3CC3)c(=O)c12	< 100	< 100
Cc1ccccc1-n1c(Cn2nc(C)c3c(N)ncnc32)nc2scc(C)c2c1=O	< 100	< 100
Cc1ccccc1-n1c(Cn2nc(-c3ccc4cc[nH]c4c3)c3c(N)ncnc32)nc2scc(C)c2c1=O	< 100	< 100
Cc1cccc2cc(Cn3nc(I)c4c(N)ncnc43)n(C3CCCCC3)c(=O)c12	< 100	–
Cc1csc2nc(Cn3nc(I)c4c(N)ncnc43)n(-c3ccccc3C(C)C)c(=O)c12	< 100	< 100
Cc1csc2nc(Cn3nc(-c4ccc(O)c(F)c4)c4c(N)ncnc43)n(-c3ccccc3F)c(=O)c12	< 100	–
Cc1cccc2cc(Cn3nc(-c4ccc(O)c(Cl)c4)c4c(N)ncnc43)n(-c3ccccc3F)c(=O)c12	< 100	–
Cc1ccccc1-n1c(Cn2nc(-c3ccc(F)c(O)c3)c3c(N)ncnc32)cc2cccc(C)c2c1=O	< 100	< 100
Cc1ccccc1-n1c(Cn2nc(-c3cc(O)cc(F)c3)c3c(N)ncnc32)cc2nccc(C)c2c1=O	< 100	< 100
Cc1csc2nc(Cn3nc(-c4cc(O)cc(F)c4)c4c(N)ncnc43)n(-c3ccccc3F)c(=O)c12	< 100	< 100
Cc1csc2nc(Cn3nc(-c4cccc(O)c4)c4c(N)ncnc43)n(-c3ccccc3C(C)C)c(=O)c12	< 100	< 100
Cc1ccccc1-n1c(Cn2nc(-c3ccc(O)c(Cl)c3)c3c(N)ncnc32)cc2cccc(C)c2c1=O	< 100	< 100
CCc1ccccc1-n1c(Cn2nc(-c3cn[nH]c3)c3c(N)ncnc32)cc2cccc(C)c2c1=O	< 100	< 100

Structure (SMILES)	IC50 [1] [nM]	IC50 [2] [nM]
Cc1ccccc1-n1c(Cn2nc(-c3cccc(O)c3)c3c(N)ncnc32)cc2cccc(F)c2c1=O	< 100	< 100
Cc1ccccc1-n1c(Cn2nc(-c3ccc(F)c(O)c3)c3c(N)ncnc32)nc2scc(C)c2c1=O	< 100	< 100
Cc1ccccc1-n1c(Cn2nc(-c3ccc(O)cc3)c3c(N)ncnc32)cc2cccc(C)c2c1=O	< 100	–
Cc1csc2nc(Cn3nc(-c4cccc(O)c4)c4c(N)ncnc43)n(-c3ccccc3C(F)(F)F)c(=O)c12	< 100	< 100
Cc1cccc2cc(Cn3nc(-c4cc(O)cc(F)c4)c4c(N)ncnc43)n(C3CCCC3)c(=O)c12	< 100	< 100
Cc1cccc2cc(Cn3nc(-c4cc(O)cc(F)c4)c4c(N)ncnc43)n(-c3ccccc3)c(=O)c12	< 100	< 100
COc1ccc(-c2nn(Cc3cc4cccc(C)c4c(=O)n3-c3ccccc3C)c3ncnc(N)c23)cc1OC	< 100	–
Cc1cccc2cc(Cn3nc(C#C[C@@H](C)O)c4c(N)ncnc43)n(-c3ccccc3C(C)C)c(=O)c12	< 100	< 100
Cc1cccc2cc(Cn3nc(-c4ccc(F)c(O)c4)c4c(N)ncnc43)n(C(C)C)c(=O)c12	< 100	< 100
Cc1ccccc1-n1c(C(C)Nc2ncnc3[nH]cnc23)cc2cccc(C)c2c1=O (centres undefined)	< 100	< 100
CC(=O)Nc1nc2ccc(-c3nn(Cc4cc5cccc(C)c5c(=O)n4-c4cccc(F)c4)c4ncnc(N)c34)cc2s1	< 100	< 100
Cc1ccccc1-n1c(Cn2nc(I)c3c(N)ncnc32)cc2ccccc2c1=O	< 100	–
Cc1cccc2cc(Cn3nc(-c4ccc(O)c(F)c4)c4c(N)ncnc43)n(-c3ccccc3F)c(=O)c12	< 100	–
COc1cc(-c2nn(Cc3cc4cccc(C)c4c(=O)n3-c3ccccc3C)c3ncnc(N)c23)ccc1Cl	< 100	–
COc1ccc(-c2nn(Cc3cc4cccc(C)c4c(=O)n3-c3ccccc3C)c3ncnc(N)c23)cc1	< 100	–
CC(=O)Nc1nc2ccc(-c3nn(Cc4cc5cccc(C)c5c(=O)n4-c4ccccc4C)c4ncnc(N)c34)cc2s1	< 100	–
Cc1csc2nc(Cn3nc(C#C[C@@H](C)O)c4c(N)ncnc43)n(-c3ccccc3C(C)C)c(=O)c12	–	< 100
Cc1cccnc1-n1c(Cn2nc(-c3cc(O)cc(F)c3)c3c(N)ncnc32)cc2ccccc2c1=O	–	< 100
Cc1ccccc1-n1c(Cn2nc(Br)c3c(N)ncnc32)nc2scc(C)c2c1=O	–	< 100
Cc1csc2nc(Cn3nc(C#C[C@@H](C)O)c4c(N)ncnc43)n(-c3ccccc3C(F)(F)F)c(=O)c12	–	< 100
Cc1ccccc1-n1c(Cn2nc(-c3ccn[nH]3)c3c(N)ncnc32)cc2cccc(C)c2c1=O	< 100	–
Cc1cccc2cc(Cn3nc(C#C[C@@H](C)O)c4c(N)ncnc43)n(C3CCCCC3)c(=O)c12	–	< 100
Cc1ccccc1-n1c(Cn2nc(I)c3c(N)ncnc32)nc2scc(C)c2c1=O	–	< 100
Cc1ccccc1-n1c(Cn2nc(Br)c3c(N)ncnc32)nc2nccc(C)c2c1=O	–	< 100
Nc1ncnc2c1c(-c1cccc(O)c1)nn2Cc1cc2cccc(Cl)c2c(=O)n1C1CC1	–	< 100
Cc1cccc2cc(Cn3nc(I)c4c(N)ncnc43)n(-c3ccccc3Cl)c(=O)c12	–	< 100
Cc1ccccc1-n1c(Cn2nc(Cl)c3c(N)ncnc32)nc2scc(C)c2c1=O	–	< 100
